Measurements as given in patent EP4570800A1, “CRYSTAL FORM OF PYRIDINOPYRIMIDINONE COMPOUND, ACID SALT THEREOF, CRYSTAL FORM OF ACID SALT THEREOF, AND USE” (Wuhan Humanwell Innovative Drug Research and Development …, priority 2022, dated 2024).

Target: T1, KRAS G12C::SOS1 (Homo sapiens, UniProt Q07889)
T1 sequence (Q07889 564-1049 limits assumed): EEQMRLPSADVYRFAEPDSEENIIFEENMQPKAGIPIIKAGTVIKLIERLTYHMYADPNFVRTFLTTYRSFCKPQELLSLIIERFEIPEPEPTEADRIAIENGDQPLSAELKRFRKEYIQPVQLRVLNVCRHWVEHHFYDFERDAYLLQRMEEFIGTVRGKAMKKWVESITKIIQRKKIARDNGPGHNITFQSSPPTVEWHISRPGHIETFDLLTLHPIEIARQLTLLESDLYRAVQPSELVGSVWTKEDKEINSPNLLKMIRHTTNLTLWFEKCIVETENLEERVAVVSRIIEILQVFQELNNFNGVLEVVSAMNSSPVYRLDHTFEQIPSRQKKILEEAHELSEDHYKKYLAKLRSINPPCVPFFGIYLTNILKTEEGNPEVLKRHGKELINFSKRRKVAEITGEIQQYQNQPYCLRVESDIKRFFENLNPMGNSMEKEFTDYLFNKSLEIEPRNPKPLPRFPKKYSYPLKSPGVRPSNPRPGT
Test: Inhibition of KRAS G12C::SOS1 binding (anti-6his-Tb / anti-GST-XL665 fluorescence ratio)
Settings: GST-KRAS G12C and His-SOS1

Cc1nc(N[C@H](C)c2cccc(S(F)(F)(F)(F)F)c2)c2cn(C3(CF)CC3)c(=O)cc2n1 [Compound of formula I, (R)-6-(1-(fluoromethyl)cyclopropyl)-2-methyl-4-((1-(3-(pentafluorosulfanyl)phenyl)ethyl)amino)pyrido[4,3-d]pyrimidin-7(6H)-one]
IC50: 3.94 nM
